Laboratory results: patent US20210085630A1, “PHARMACEUTICAL COMPOSITION AND USE THEREOF IN PREPARING DRUG FOR TREATING TUMOR MULTI-DRUG RESISTANCE” (SICHUAN JIUZHANG BIOLOGICAL SCIENCE AND TECHNOLOGY CO., LTD., priority 2018, published 2021)

Tests used:
[1] = test system: drug-resistant A549 lung cancer cell lines; test: Reversal of gemcitabine resistance in drug-resistant A549 cells (MTT); type: cell-based, human; settings: test drug 30 μg/ml; for Reversal index: IC50 before reversal/IC50 after reversal, drug-resistant A549
Description: The culture and experimental methods of cells were the same as above. In the experiment, there are following groups: drug-resistant cell negative group, drug-resistant cells+test drug group 1 (30 μg/ml), drug-resistant cells+test drug group 2 (30 μg/ml), drug-resistant cells+test drug group 3 (30 μg/ml), drug-resistant cells+test drug group 4 (30 μg/ml), drug-resistant cells+test drug group 5 (30 μg/ml), drug-resistant cells+test drug group 6 (30 μg/ml). Each test drug group was respectively added with different concentrations of gemcitabine, each concentration including 3 replicate wells, and the OD value of each well was measured, to observe whether the cytotoxicity was shown. Each test drug and gemcitabine were respectively used to act on drug resistant cells, so as to compare with the effects of gemcitabine administrated alone on drug-resistant cells, and the IC50 value of gemcitabine against drug-resistant cell lines was calculated, as well as the IC50 value of each test drug after reversing drug-resistant cell lines. Reversal index=IC50 value before reversal/IC50 value after reversal.

[2] = test system: PD-1/PD-L1; test: PD-1/PD-L1 expression rate in transplanted tumor tissues, multidrug resistance model; type: in vivo; settings: transplanted tumor tissues of B16 melanoma mice with multidrug resistance (as titled), Example 5 regimen
Text: (§1) The positive expression rate of PD-1/PD-L1 in tumor tissues was detected by immunohistochemical SP method.

[3] = test system: PD-1/PD-L1; test: PD-1/PD-L1 expression rate (immunohistochemical SP method), drug-resistant Lewis lung cancer tumor tissue; type: in vivo; settings: transplanted tumor tissues of drug-resistant Lewis lung cancer in mice, Example 3 regimen
Text: as §1

[4] = test system: drug-resistant A375 melanoma cell lines; test: Reversal of dacarbazine resistance in drug-resistant A375 cells (MTT); type: cell-based, human; settings: test drug 30 μg/ml; for Reversal index: IC50 before reversal/IC50 after reversal, drug-resistant A375
Description: The culture and experimental methods of cells were the same as above.
In the experiment, there are following groups: drug-resistant cell negative group, drug-resistant cells+test drug group 1 (30 μg/ml), drug-resistant cells+test drug group 2 (30 μg/ml), drug-resistant cells+test drug group 3 ([…]), drug-resistant cells+test drug group 4 (30 μg/ml), drug-resistant cells+test drug group 5 (30 μg/ml), drug-resistant cells+test drug group 6 (30 μg/ml).
Each test drug group was added with different concentrations of dacarbazine, each concentration including 3 replicate wells, and the OD value of each well was measured, to observe whether the cytotoxicity was shown. Each test drug and dacarbazine were respectively used to act on drug resistant cells, so as to compare with the effects of dacarbazine administrated alone on drug-resistant cells, and the IC50 value of dacarbazine against drug-resistant cell lines was calculated, as well as the IC50 value of each test drug after reversing drug-resistant cell lines.
Reversal index=IC50 value before reversal/IC50 value after reversal.

SMILES | Reversal index [1] | reversal effect on the drug-resistant A549 cell lines (in words) [1] | Expression rate of PD-1/PD-L1, Positive PD-L1 [2] [%] | Expression rate of PD-1/PD-L1, Positive PD-L1 [3] [%] | Reversal index [4] | reversal effect on the drug-resistant A375 cell lines (in words) [4]
O=C(/C=C/c1ccc(O)c(O)c1)O[C@@H]1C[C@](O)(C(=O)O)C[C@@H](O)[C@H]1O [Chlorogenic acid, chlorogenic acid] | 1.13 | no significant reversal effect | 72.26 | 81.83 | 1.17 | no significant reversal effect
O=C(/C=C/c1ccc(O)cc1)O[C@@H]1C[C@](O)(C(=O)O)C[C@@H](O)[C@H]1O [Coumaroylquinic acid, coumaroylquinic acid] | 1.10 | no significant reversal effect | 73.39 | 79.23 | 1.06 | no significant reversal effect
